Patent US6451814B1, “Heterocyclic β-3 adrenergic receptor agonists” (Wyeth, priority 2000, dated 2002)
Values joined by “and” are separate entries in the source; they are usually repeats but may differ in a detail not shown here. Equal values may be shown once.

Assays:
[1] = biological target: T1, human β3-adrenergic receptor (Homo sapiens, UniProt P13945); experiment: cAMP response (SPA kit) in CHO cells transfected with human β3 adrenergic receptor; format: cell-based; details: for EC50: CHO cells expressing human β3-AR, 10^-9 M to 10^-5 M, 30 min at 37° C., cAMP by SPA, read-out: EC50(β3); for IA(β3): maximal response of compound compared to maximal response of isoproterenol at 10^-5 M, CHO cells, human β3-AR
T1 construct: Full length β3 AR clones (402 amino acids) containing the last 6 amino acids of hβ3—AR are prepared; expressed in transfected cells; host or cells: CHO cells
T1 sequence (P13945 whole entry): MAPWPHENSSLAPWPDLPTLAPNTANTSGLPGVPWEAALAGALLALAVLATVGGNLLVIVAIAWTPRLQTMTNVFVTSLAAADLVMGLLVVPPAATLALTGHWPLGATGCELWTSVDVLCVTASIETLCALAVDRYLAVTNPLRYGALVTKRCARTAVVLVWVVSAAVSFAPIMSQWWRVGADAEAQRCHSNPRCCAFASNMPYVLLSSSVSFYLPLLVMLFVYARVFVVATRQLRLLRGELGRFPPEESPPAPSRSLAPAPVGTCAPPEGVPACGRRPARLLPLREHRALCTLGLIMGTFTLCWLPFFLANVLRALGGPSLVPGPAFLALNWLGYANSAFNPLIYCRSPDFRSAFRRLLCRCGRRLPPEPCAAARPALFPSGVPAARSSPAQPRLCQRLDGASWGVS

SMILES	melting point	EC50 [1]	IA(β3) [1]
O=C(NCCCCCCCCF)N1CCC(Nc2ccc(CCNC[C@H](O)COc3ccc(O)cc3)cc2)CC1 [Example 55, N-(8-Fluorooctyl)-4-[4-(2-{[(2S)-2-hydroxy-3-(4-hydroxyphenoxy)propyl]amino}ethyl)anilino]-1-piperidinecarboxamide]	148 to 150 °C	171 nM	1.07
O=C(NCc1ccc(-n2cccn2)cc1C(F)(F)F)N1CCC(Nc2ccc(CCNC[C@H](O)COc3ccc(O)cc3)cc2)CC1 [Example 34, 4-(4-{2-[(2S)-2-Hydroxy-3-(4-hydroxy-phenoxy)-propylamino]-ethyl}-phenylamino)-piperidine-1-carboxylic Acid 4-pyrazol-1-yl-2-trifluoromethyl-benzylamide]	96 to 100 °C	62 nM	0.83
CCCCCCCCNC(=O)Nc1ccc(S(=O)(=O)N2CCC(Nc3ccc(CCNC[C@H](O)c4ccc(O)c(NS(C)(=O)=O)c4)cc3)CC2)cc1 [Example 116, N-(2-Hydroxy-5-{(1R)-1-hydroxy-2-[2-(4-{1-[4-(3-octyl-ureido)-benzenesulfonyl]-piperidin-4-ylamino}-phenyl)-ethylamino]-ethyl}-phenyl)-methanesulfonamide]	134 to 136 °C	1 nM	1.1
O=C(NCCCC1CCCCC1)N1CCC(Nc2ccc(CCNC[C@H](O)COc3ccc(O)cc3)cc2)CC1 [Example 68, 4-(4-{2-[(2S)-2-Hydroxy-3-(4-hydroxy-phenoxy)-propylamino]-ethyl}-phenylamino)-piperidine-1-carboxylic Acid (3-cyclohexyl-propyl)-amide]	69 to 71 °C	39 nM	1.1
Cc1ccc(C(=O)CCNC(=O)N2CCC(Nc3ccc(CCNC[C@H](O)COc4ccc(O)cc4)cc3)CC2)cc1 [Example 28]	85 to 89 °C	10 nM	0.76
Cc1ccsc1C(=O)N1CCC(Sc2ccc(CCNC[C@H](O)COc3ccc(O)cc3)cc2)CC1 [Example 106, [4-(4-{2-[(2S)-2-Hydroxy-3-(4-hydroxy-phenoxy)-propylamino]-ethyl}-phenylsulfanyl)-piperidin-1-yl]-(3-methyl-thiophen-2-yl)-methanone]	135 to 144 °C	127 nM	0.79
COc1ccc(CCCCNC(=O)N2CCC(Nc3ccc(CCNCC(O)COc4ccc(O)cc4)cc3)CC2)cc1OC (stereo not drawn) [Example 57, 4-(4-{2-[2-Hydroxy-3-(4-hydroxy-phenoxy)-propylamino]-ethyl}-phenylamino)-piperidine-1-carboxylic Acid [4-(3,4-dimethoxy-phenyl)-butyl]-amide]	60 to 62 °C	–	0.94
CCCCCCNC(=O)Nc1ccc(CNC(=O)N2CCC(Nc3ccc(CCNC[C@H](O)COc4ccc(O)cc4)cc3)CC2)cc1 [Example 67, 4-(4-{2-[(2S)-2-Hydroxy-3-(4-hydroxy-phenoxy)-propylamino]-ethyl}-phenylamino)-piperidine-1-carboxylic Acid 4-(3-hexyl-ureido)-benzylamide]	141 to 143 °C	29 nM	0.92
O=C(NCC(F)(F)F)N1CCC(Nc2ccc(CCNC[C@H](O)COc3ccc(O)cc3)cc2)CC1 [Example 13, 4-(4-{2-[(2S)-2-Hydroxy-3-(4-hydroxy-phenoxy)-propylamino]-ethyl}-phenylamino)-piperidine-1-carboxylic Acid (2,2,2-trifluoro-ethyl)-amide]	89 to 94 °C	66 nM	0.82
CCCCCCCCS(=O)(=O)N1CCC(Nc2ccc(CCNC[C@H](O)COc3ccc(O)cc3)cc2)CC1 [Example 111]	64 to 68 °C	125 nM	0.78
CCc1ccc(CCNC(=O)N2CCC(Nc3ccc(CCNC[C@H](O)COc4ccc(O)cc4)cc3)CC2)cc1 [Example 30, 4-(4-{2-[(2S)-2-Hydroxy-3-(4-hydroxy-phenoxy)-propylamino]-ethyl}-phenylamino)-piperidine-1-carboxylic Acid [2-(4-ethyl-phenyl)-ethyl]-amide]	79 to 81 °C	34 nM and 49 nM and 22 nM and 98 nM	1 and 0.87 and 0.84 and 0.65

The next lines start with the values.

melting point	EC50 [1]	IA(β3) [1]	SMILES
103 to 108 °C	–	1	CS(=O)(=O)Nc1cc(OC[C@@H](O)CNCCc2ccc(NC3CCN(C(=O)NCc4cc(F)ccc4F)CC3)cc2)ccc1O [Example 50, 4-(4-{2-[(2S)-2-Hydroxy-3-(4-hydroxy-3-methanesulfonylamino-phenoxy)-propylamino]-ethyl}-phenylamino)-piperidine-1-carboxylic Acid 2,5-difluoro-benzylamide]
83 to 86 °C	55 nM	0.78	O=C(NCc1ccccc1C(F)(F)F)N1CCC(Nc2ccc(CCNC[C@H](O)COc3ccc(O)cc3)cc2)CC1 [Example 33, 4-(4-{2-[(2S)-2-Hydroxy-3-(4-hydroxy-phenoxy)-propylamino]-ethyl}-phenylamino)-piperidine-1-carboxylic Acid 2-trifluoromethyl-benzylamide]
80 to 84 °C	–	1.04 and 0.77	O=C(NCc1c(F)cccc1F)N1CCC(Nc2ccc(CCNC[C@H](O)COc3ccc(O)cc3)cc2)CC1 [Example 32, 4-(4-{2-[(2S)-2-Hydroxy-3-(4-hydroxy-phenoxy)-propylamino]-ethyl}-phenylamino)-piperidine-1-carboxylic Acid 2,6-difluoro-benzylamide]
87 to 91 °C	64 nM	0.87	COc1cccc(CNC(=O)N2CCC(Nc3ccc(CCNC[C@H](O)COc4ccc(O)cc4)cc3)CC2)c1OC [Example 25, 4-(4-{2-[(2S)-2-Hydroxy-3-(4-hydroxy-phenoxy)-propylamino]-ethyl}-phenylamino)-piperidine-1-carboxylic Acid 2,3-dimethoxy-benzylamide]
68 to 73 °C	60 nM	0.86	O=C(NCc1cccc(F)c1)N1CCC(Nc2ccc(CCNC[C@H](O)COc3ccc(O)cc3)cc2)CC1 [Example 27, 4-(4-{2-[(2S)-2-Hydroxy-3-(4-hydroxy-phenoxy)-propylamino]-ethyl}-phenylamino)-piperidine-1-carboxylic Acid 3-fluoro-benzylamide]
